We go through one molecule from paper PMC2409895, “Antitumour efficacy of VEGFR2 tyrosine kinase inhibitor correlates with expression of VEGF and its receptor VEGFR2 in tumour models” (British Journal of Cancer, 2004).

Test [1] relates to PC3 xenograft. The experiment in a line: PC3 tumour xenograft growth inhibition. Format: in vivo, SCID mice. The conditions noted are these: for % Inhibition of tumour growth: vs vehicle. As for the experimental part:
Tumours were initiated by injection of tumour cell suspension subcutaneously in 8–12-week-old nude mice, except PC3 tumours that were grown in SCID mice (Charles River Laboratories, Wilmington, MA, USA). When tumours reached a volume of 100–200 mm^3, mice were randomised into groups of eight prior to treatment with VEGFR kinase inhibitors. Animals were treated with kinase inhibitors (10, 30, or 100 mg kg^−1) or vehicle (0.5% hydroxypropyl methyl cellulose, 0.1% Tween 80 in sterile water), administered once or twice daily by oral gavage for 2–3 weeks (till the mean tumour volume reached 1000–1500 mm^3). Tumour volume was measured twice weekly by calipers, using the formula (length × width × width × 0.5), where length was the longest diameter across the tumour, and width was the corresponding perpendicular. Tumour growth inhibition was calculated by change in the slopes of tumour growth for control and treated tumours. The oral dose of GW654652 producing 50% inhibition of tumour growth (ED50, mg kg^−1) was estimated by a programme that performed a weighted nonlinear regression analysis of data using the equation: y=Vmax(1−(x/(K+x))), where K is equal to ED50. All animal studies were carried out with the appropriate institutional ethical committee approval and they met the standards of both the US federal regulations and those required by the UKCCCR guidelines ([Workman et al, 1998]).

Test [2] addresses T1, ErbB2 (Homo sapiens, UniProt P04626).
T1 construct: Each kinase assay was conducted using purified recombinant catalytic domain of the enzyme
Description: ErbB2 kinase assay (scintillation proximity). The class given is biochemical. The protocol:
Inhibition of several other kinases by small molecules was also determined. Each kinase assay was conducted using purified recombinant catalytic domain of the enzyme. The concentration of ATP and kinase-specific biotinylated peptide in each assay was below the apparent Km of the respective substrate. Inhibition of c-Fms, SRC, and Tie-2 was evaluated by an HTRF format and the inhibition of CDK2, CDK4, EGFR, ErbB2, and Eph-B4 was detected by scintillation proximity assay.

T1 sequence (P04626 720-987 limits assumed, species assumed): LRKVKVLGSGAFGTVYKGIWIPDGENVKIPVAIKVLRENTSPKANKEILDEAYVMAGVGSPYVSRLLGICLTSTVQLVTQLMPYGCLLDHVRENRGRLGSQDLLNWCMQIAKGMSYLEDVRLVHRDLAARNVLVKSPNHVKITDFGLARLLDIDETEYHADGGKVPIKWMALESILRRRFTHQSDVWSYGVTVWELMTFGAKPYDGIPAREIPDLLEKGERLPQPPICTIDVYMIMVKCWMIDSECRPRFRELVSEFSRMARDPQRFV

Broadly, the ED50 is the midpoint of the dose-response relation. By IC50 is commonly meant the concentration that inhibits the measured activity by half. A low value points to greater potency. Regarding `CCS(=O)(=O)c1ccc(OC)c(Nc2nccc(N(C)c3ccc4c(C)n[nH]c4c3)n2)c1` [GW654652, N^2-[5-(ethylsulphonyl)-2-methoxyphenyl]-N^4-methyl-N^4-(3-methyl-1H-indazol-6-yl)pyrimidine-2,4-diamine], the “% Inhibition of tumour growth” value in test [1] (PC3, 30 mg kg^−1 oral once daily) came to 21%; in test [1] (PC3, 100 mg kg^−1 oral once daily), 48%. The molecule further showed an ED50 in test [1] (PC3, oral dose producing 50% inhibition of tumour growth) of 108 ± 50 mg/kg/day. The molecule further gave an IC50 in test [2] (mean±s.e.) of 11.5 ± 2.74 µM. For the same molecule, the “Fold selectivity vs VEGFR-2, ErbB2” value in test [2] (ratio of IC50 of the kinase to IC50 vs VEGFR-2) is 5125.
